In PubChem BioAssay AID1259371 (The Scripps Research Institute Molecular Screening Center, 2018) one finds IC50 data, which are given here for 67 compounds.

Calls of active or inactive are those of the source. No rule for the calls is given here.

Chain of Microphthalmia-associated transcription factor (Homo sapiens) (O75030 whole entry, looked up): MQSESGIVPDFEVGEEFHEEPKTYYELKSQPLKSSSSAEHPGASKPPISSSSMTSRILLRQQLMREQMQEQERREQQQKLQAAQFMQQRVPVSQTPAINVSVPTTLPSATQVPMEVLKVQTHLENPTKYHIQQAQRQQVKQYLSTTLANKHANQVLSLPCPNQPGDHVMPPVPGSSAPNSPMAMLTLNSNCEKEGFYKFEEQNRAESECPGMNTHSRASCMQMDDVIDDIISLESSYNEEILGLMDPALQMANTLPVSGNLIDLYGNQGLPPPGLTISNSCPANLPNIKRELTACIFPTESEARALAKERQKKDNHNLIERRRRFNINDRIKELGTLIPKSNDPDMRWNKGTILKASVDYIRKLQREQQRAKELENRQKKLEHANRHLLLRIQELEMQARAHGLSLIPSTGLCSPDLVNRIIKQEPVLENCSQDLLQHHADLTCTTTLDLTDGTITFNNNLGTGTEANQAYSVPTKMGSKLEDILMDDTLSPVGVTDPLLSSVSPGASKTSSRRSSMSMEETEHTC

This experiment has as its target Microphthalmia-associated transcription factor (Homo sapiens) (UniProt O75030). The experiment can be described thus: compounds blocking human MITF signal – biochemical, AlphaScreen, dose response (AID 1259371). To be noted: AlphaScreen biochemical MITF assay, signal inhibition. In general terms: Bead proximity is the source of the signal in Alpha formats.
With `O=C1N[C@@H](COCc2ccccc2)C(=O)N2CCN(C(=O)NC3CCCCC3)C[C@H]12`, the IC50 (usually the midpoint of a concentration-inhibition curve) is “inactive”. As for `O=C1N[C@H](Cc2ccc(O)cc2)C(=O)N2CCN(C(=O)NC3CCCCC3)C[C@H]12`, the figure is > 2160 nM (inactive). Consider `Brc1c(OCCN2CCNCC2)ccc2ccccc12`, for which the IC50 entry is “inactive”. As to `CC(=O)NC1=NC(=O)/C(=C\c2ccc(Br)o2)S1`, the IC50 is 153 nM. Turning to `O=C1N[C@@H](Cc2ccccc2)C(=O)N2CCN(C(=O)NC3CCCCC3)C[C@H]12`, the IC50 result was “inactive”. Regarding `CCOc1ccc(CN2CCN(Cc3cccnc3)CC2)cc1`, the IC50 is > 5780 nM (inactive). As for `O=C(COC(=O)c1cc(-c2ccco2)nc2ccccc12)NC1CC1`, the entry is “inactive”; as for `CCCCCCCCCCCCCCCC(=O)OC[C@H](O)[C@H]1OC(=O)C(=O)C1O` (some centres not stated), “inactive”; as for `Cc1cccc(NC(=O)c2ccc(NS(=O)(=O)c3ccc4[nH]cc(C(=O)O)c(=O)c4c3)cc2)c1`, > 1580 nM (inactive). As to `CCc1ccc(CN2CCN(C(C)C)CC2)cc1`, the IC50 is > 6890 nM (inactive). For `O=C(O)CSc1cc(Cl)c2nonc2c1[N+](=O)[O-]` the value was “inactive”. On to `COc1cc(OC)c(OC)cc1CN1CCN(Cc2ccc(C)cc2)CC1`, for which the IC50 was > 5760 nM (inactive). For `O=C(NCc1cccnc1)c1cccc(-c2cccs2)c1` the value was > 6640 nM (inactive); for `C/C(=N\Nc1ccc(S(=O)(=O)O)cc1)c1ccc([N+](=O)[O-])o1`, > 2160 nM (inactive); for `COc1ccc(OC)c(CN2CCN(Cc3ccc(F)cc3)CC2)c1`, > 6110 nM (inactive). As for `Cc1ccc(/C=C/C(=O)NCc2ccccn2)o1`, the entry is “inactive”; as for `CC(C)[C@H]1NC(=O)[C@H]2CN(C(=O)NCc3ccccc3)CCN2C1=O`, “inactive”; as for `O=C1N[C@@H](Cc2c[nH]c3ccccc23)C(=O)N2CCN(C(=O)NC3CCCCC3)C[C@H]12`, “inactive”.

With `CC(C)NC(=O)c1cccc(NC(=O)Nc2ccc(-c3ncnc4[nH]cc(Cl)c34)cc2)c1`, the IC50 was 676 nM. With `O=C(O)c1cccc(N2C(=O)CC(Nc3ccc(N4CCOCC4)cc3)C2=O)c1` (configuration not stated), the IC50 was 242 nM. In the case of `Cc1cccc(CN2CCN(C3CCC(C)CC3)CC2)c1` (configuration not stated), the IC50 is > 5540 nM (inactive). Take `CN(C)CCNc1nc(C2COc3ccccc3O2)nc2ccc(-c3cn[nH]c3)cc12` (configuration not stated): the IC50 result was “inactive”.

As for `O=C1N[C@H](Cc2ccc(O)cc2)C(=O)N2CCN(C(=O)NCc3ccccc3)C[C@H]12`, the IC50 result was “inactive”.

Turning to `COc1ccc(C)cc1NC(=O)C(NCC(O)c1ccccc1)c1ccccc1` (configuration not stated), the IC50 result was “inactive”. On to `O=C(NNC(=O)c1cc(-c2ccco2)nc2ccccc12)NC1CCCCC1`, for which the IC50 was 126 nM.

On to `CC(=O)CC1=C(C(=O)O)N2C(=O)C(N)C2SC1` (configuration not stated), for which the IC50 is > 6480 nM (inactive). For the compound `O=C(O)c1cccc(-n2cccc2/C=C2/NC(=O)N(c3ccc(Cl)cc3)C2=O)c1`, the IC50 is 42.2 nM. Regarding `O=C(NCCO)c1ccc2nc(-c3ccco3)c(-c3ccco3)nc2c1`, the IC50 was 396 nM. For `C[C@@H]1NC(=O)[C@H]2CN(C(=O)NCc3ccccc3)CCN2C1=O`, the IC50 entry is “inactive”. As for `Cc1cc2c(c(=O)[nH]1)C(=O)O/C2=C\c1ccco1`, the IC50 is 15.3 nM. Consider `COc1ccc2c(c1)CC(C(=O)Nc1ccc(-c3cn[nH]c3)cc1OCC#N)CO2` (configuration not stated), for which the IC50 entry was “inactive”. For the compound `COc1ccc(CC2NCCc3cc(OC)c(OC)cc32)cc1OC` (configuration not stated), the IC50 is 40 nM. For `Cc1cc(C)n2nc(N)c(N)c2n1`, the IC50 is > 11600 nM (inactive). As for `O=c1[nH]cccc1-c1ccc(Nc2nccc(-c3ccc4nc(C5CC5)[nH]c(=O)c4c3)n2)cc1`, the IC50 result was “inactive”. Take `O=C(COC(=O)/C=C/c1ccco1)NCc1ccco1`: the IC50 was 393 nM.

Regarding `CN1C(=O)[C@H]2CN(C(=O)NCc3ccccc3)CCN2C(=O)[C@@H]1Cc1ccccc1`, the IC50 result is “inactive”. Turning to `O=C(NCC(c1cccs1)S(=O)(=O)c1ccc(Cl)cc1)c1ccco1` (configuration not stated), the IC50 entry is “inactive”.

As for `CC[C@H](C)[C@@H]1NC(=O)[C@H]2CN(C(=O)NC3CCCCC3)CCN2C1=O`, the IC50 was > 2160 nM (inactive). Regarding `C[C@H]1C(=O)N2CCN(C(=O)NC3CCCCC3)C[C@@H]2C(=O)N1C`, the IC50 result was “inactive”.

Turning to `COC(=O)CSc1nnc(-c2ccco2)n1Cc1ccco1`, the IC50 is 99.3 nM. As for `C[C@@H]1NC(=O)[C@H]2CN(C(=O)NC3CCCCC3)CCN2C1=O`, the IC50 result was “inactive”.

As to `NC(=O)COC(=O)c1cc2c(s1)CCC2`, the IC50 result is “inactive”.

As to `Cc1nc(C)n(-c2ccc(Nc3cc(-n4cc(N(c5cccnc5)c5cccnc5)cn4)ccn3)cc2)n1`, the IC50 was 864 nM. For `Cc1ccc(-c2nnc3s/c(=C\c4ccco4)c(=O)n23)cc1` the value was “inactive”; for `CN1CCN(C(=O)c2ccc(-c3nc(Nc4ccccc4)c4ncn(C5CCCCC5)c4n3)cc2)CC1`, > 7630 nM (inactive); for `CNC(=O)COc1cc(-c2cn[nH]c2)ccc1NC(=O)C1COc2ccc(OC)cc2C1` (configuration not stated), “inactive”. For `Clc1ccc2c(c1)CC(c1nc(Nc3cncnc3)c3ccccc3n1)CO2` (configuration not stated) the value was “inactive”; for `COc1ccc(OC)c(NC(=O)c2cc3ccc(O)cc3oc2=Nc2ccc(C(=O)O)cc2)c1`, 981 nM; for `CCC(C)C(=O)NCc1nnc2n1CCN(C/C=C/c1ccco1)CC2` (configuration not stated), 570 nM. Turning to `CC1=NC(=S)C2C(=O)O/C(=C/c3ccc(-c4cccc([N+](=O)[O-])c4)o3)C2=C1` (configuration not stated), the IC50 entry is “inactive”. For `O=C(c1ccc(=O)oc1)N1CCc2ccccc21`, the IC50 result is “inactive”. As to `O=C(O)c1ccc(-n2cccc2)cc1Cl`, the IC50 is 626 nM. For `O=C1OC(c2cccc([N+](=O)[O-])c2)=N/C1=C\c1ccc(OCc2ccccc2)cc1` the value was > 4620 nM (inactive); for `O=C(OC1CCOC1=O)c1ccc(S(=O)(=O)NCc2ccco2)cc1` (configuration not stated), > 2370 nM (inactive); for `COc1cc(C)c2c(c1C=O)Oc1c(c(C)c(O)c3c1C(O)OC3=O)OC2=O` (configuration not stated), 468 nM. `C=CCNC(=O)COC(=O)c1cc(-c2ccco2)nc2ccccc12`: the IC50 was > 2310 nM (inactive). Consider `O=S(=O)(N=S(=O)(/C=C/c1ccccc1)c1ccccc1)c1ccccc1` (configuration not stated), for which the IC50 was > 5360 nM (inactive). `O=C1N[C@@H](CSCc2ccccc2)C(=O)N2CCN(C(=O)NCc3ccccc3)C[C@H]12`: the IC50 is 394 nM. Regarding `O=C1OC(c2cc(C3=N/C(=C\c4ccccc4)C(=O)O3)cc(C3=N/C(=C/c4ccccc4)C(=O)O3)c2)=N/C1=C\c1ccccc1`, the IC50 was 819 nM. For `CN(C)CCCNC(=O)c1cccc(CN(C(=O)c2nc3ccc(-c4cn[nH]c4)cc3s2)C2CC2)c1` the value was “inactive”; for `O=C(/C=C/c1ccco1)NCCCCCCNC(=O)/C=C/c1ccco1`, “inactive”; for `C[C@@H](OCc1ccccc1)[C@@H]1NC(=O)[C@H]2CN(C(=O)NC3CCCCC3)CCN2C1=O`, “inactive”. For `O=C(O)c1cc(S(=O)(=O)Nc2ccc(-n3cnnn3)cc2)ccc1O` the value was “inactive”. For `O=C1N[C@@H](Cc2ccc(O)cc2)C(=O)N2CCN(C(=O)NC3CCCCC3)C[C@H]12` the value was > 2160 nM (inactive); for `CCOc1cccc(OCC)c2c(C)[n+](C)c(C)c1-2`, 58.2 nM. As to `O=C(NCCO)c1cccc(-c2cccs2)c1`, the IC50 entry is “inactive”. Regarding `O=C(Nc1ccc(Oc2ccccc2)cc1)c1ccnc(-c2cccs2)c1`, the IC50 was > 6710 nM (inactive).
